# Experimental data as given in patent US10064832B2, “Kartogenin-conjugated chitosan particles with improved sustained release property and biocombatibility, and use thereof” (priority 2014, dated 2018).
# Tested on: osteoarthritis model rats
# Test: Osteoarthritis regeneration after intra-articular injection in osteoarthritis animal model
# Assay type: in vivo
# Conditions: injected into knee joints at 6 and 9 weeks after surgery, euthanized at 14 weeks
# Description: The rats were euthanized at 14 weeks, and joint tissues were separated and fixed in 10% paraformaldehyde, and then treated with 6% nitric acid for to decalcification. The tissues were embedded in a Tissue-Tek O.C.T. compound (Sakura Finetek Japan Co., Ltd.), sectioned to 10 μm and attached to a slide glass, and thereafter, staining with Safranin-O/fast green and immunofluorescence of collagen type II (COL2A1) and aggrecan were performed.
smiles,measurement,value
O=C(O)c1ccccc1C(=O)Nc1ccc(-c2ccccc2)cc1 [kartogenin],COL2 protein (immunofluorescent staining),noticeable reduction
same,aggrecan protein (immunofluorescent staining),noticeable reduction
same,cartilage histology (Safranin-O/fast green),weak vertical matrix cracks in a deep area of cartilage and loss and surface peeling of cartilage
